Series [1] in a line: Selectivity index, ratio of IC50 for rat L6 cells to IC50 for bloodstream forms of Trypanosoma brucei rhodesiense STIB 900. In kind it is toxicity, cell-based. The settings on record: read-out: Ratio IC50.
The test system of series [2] is Trypanosoma cruzi. In words: Antiparasitic activity against trypomastigote forms of Trypanosoma cruzi Tulahuen C2C4 infected in rat L6 cells assessed as inhibition of growth after 96 hrs by inverted microscopy. The format is functional, organism-based. The settings on record: Tulahuen C2C4, L6, 96 h.
Series [3] is described as follows: Selectivity index, ratio of IC50 for rat L6 cells to IC50 for trypomastigote forms of Trypanosoma cruzi Tulahuen C2C4 infected in rat L6 cells. The format is toxicity, cell-based. The settings on record: read-out: Ratio IC50.
Series [4] in a line: Selectivity index, ratio of IC50 for rat L6 cells to IC50 for axenic amastigote forms of Leishmania donovani MHOM/ET/67/L82. The settings on record: read-out: Ratio IC50. The format is toxicity, cell-based.
For series [5], the system named is Trypanosoma brucei brucei. Description: Ratio of IC50 for bloodstream forms of Trypanosoma brucei brucei Lister 427 clone 221a overexpressing type I nitroreductase in absence of tetracycline to IC50 for bloodstream forms of Trypanosoma brucei brucei Lister 427 clone 221a overexpressing type I nitroreductase in presence of tetracycline. The format is functional.

In series [6] the target is Sterol 14-alpha demethylase (Trypanosoma cruzi (strain CL Brener), UniProt Q7Z1V1). Description: Binding affinity to Trypanosoma cruzi CYP51.
For series [7], the system named is Trypanosoma cruzi. Description: Ratio of benznidazol IC50 to compound IC50 for trypomastigote forms of Trypanosoma cruzi Tulahuen C2C4 infected in rat L6 cells assessed as inhibition of growth after 96 hrs by inverted microscopy. In kind it is functional.
The subject of a further series is L6. In words: Cytotoxicity against rat L6 cells after 72 hrs by alamar blue assay. The format is cell-based. The settings on record: L6, 72 h.
Series [8] concerns Trypanosoma brucei rhodesiense. Description: Antiparasitic activity against bloodstream forms of Trypanosoma brucei rhodesiense STIB 900 assessed as inhibition of growth after 72 hrs by resazurin assay. The format is functional, organism-based. The settings on record: STIB 900, 72 h. In general terms: The colour change of resazurin is a common sign of viable cells or microbes.

The test system of another series is Leishmania donovani. Description: Antiparasitic activity against axenic amastigote forms of Leishmania donovani MHOM/ET/67/L82 assessed as inhibition of growth after 72 hrs by resazurin assay. In kind it is functional, organism-based. The settings on record: MHOM/ET/67/L82, 72 h.
Series [9] relates to Trypanosoma brucei brucei. Description: Trypanocidal activity against wild type bloodstream forms of Trypanosoma brucei brucei Lister 427 clone 221a assessed as inhibition of proliferation after 3 days by resazurin assay. The format is functional, organism-based. The settings on record: 72 h.
Series [10] has as its system Trypanosoma brucei brucei. Description: Trypanocidal activity against bloodstream forms of Trypanosoma brucei brucei Lister 427 clone 221a overexpressing type I nitroreductase assessed as inhibition of proliferation after 3 days by resazurin assay in absence of tetracycline. The settings on record: 72 h. The format is functional, organism-based.
In series [11] the test system is Trypanosoma brucei brucei. Description: Trypanocidal activity against bloodstream forms of Trypanosoma brucei brucei Lister 427 clone 221a overexpressing type I nitroreductase assessed as inhibition of proliferation after 3 days by resazurin assay in presence of tetracycline. The format is functional, organism-based. The settings on record: 72 h.
Series [12] can be described thus: Selectivity ratio of IC50 for trypomastigote forms of Trypanosoma cruzi Tulahuen C2C4 infected in rat L6 cells to IC50 for bloodstream forms of Trypanosoma brucei rhodesiense STIB 900. The format is functional.

For orientation: IC50 means the concentration that inhibits the measured activity by half. For orientation: Kd means a measure of binding affinity in units of concentration.

Sequence of Sterol 14-alpha demethylase (Q7Z1V1 whole entry): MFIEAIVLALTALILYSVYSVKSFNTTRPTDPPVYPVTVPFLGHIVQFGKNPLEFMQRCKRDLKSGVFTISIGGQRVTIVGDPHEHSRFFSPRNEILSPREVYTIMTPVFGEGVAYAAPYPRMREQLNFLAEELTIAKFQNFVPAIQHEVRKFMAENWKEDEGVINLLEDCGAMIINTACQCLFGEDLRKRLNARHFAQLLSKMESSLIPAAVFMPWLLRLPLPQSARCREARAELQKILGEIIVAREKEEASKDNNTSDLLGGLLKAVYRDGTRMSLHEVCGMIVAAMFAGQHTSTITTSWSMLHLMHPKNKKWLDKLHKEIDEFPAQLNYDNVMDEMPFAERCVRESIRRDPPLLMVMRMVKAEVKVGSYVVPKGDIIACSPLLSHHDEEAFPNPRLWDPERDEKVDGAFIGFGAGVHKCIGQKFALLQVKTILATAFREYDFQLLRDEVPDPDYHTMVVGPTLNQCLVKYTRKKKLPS

`O=[N+]([O-])c1ncn(CCCNS(=O)(=O)c2ccc(Cl)s2)n1`: the selectivity ratio is 122 in [1], 556 in series [3] and 7 in series [4]. The IC50 with Trypanosoma cruzi [2] was found to be 438 nM. Moreover, the entries for the “Ratio IC50” value (in series [5]; in the series on Trypanosoma cruzi [7]) were 18.9 and 3.6, respectively. In series [6], this molecule had a Kd of 65200 nM.

On to `O=C(NCCCn1cnc([N+](=O)[O-])n1)c1ccnc(Cl)c1`, for which the IC50 is more than 322000 nM with L6; 2250 nM in series [8]; 13500 nM in the series on Trypanosoma cruzi [2]; 82400 nM with Leishmania donovani; more than 7990 nM in series [9]; 6990 nM in series [10]. In series [11], the IC50 came to 5660 nM. Also, the selectivity ratio in series [1] was more than 143; in series [3] it was more than 24; in series [4], more than 4. Moreover, the “Ratio IC50” value in [5] is on record as 1.2; in the series with Trypanosoma cruzi [7], 0.17; in [12] it was 6.

In the case of `O=C(NCCCn1cnc([N+](=O)[O-])n1)c1cc2ccccc2s1`, the IC50 is 124000 nM in the series with L6; 187 nM in series [8]; 293 nM with Trypanosoma cruzi [2]; 14700 nM in the series on Leishmania donovani; more than 930 nM in [9]; 1290 nM in [10]. Besides, in [11], the IC50 was 70 nM. The selectivity ratio was determined as 665 in [1], 425 in series [3] and 8 in series [4]. In addition, the “Ratio IC50” value came to 18.4 in series [5] and 7.72 with Trypanosoma cruzi [7].

As for `O=C(NCCCCn1cnc([N+](=O)[O-])n1)c1sc2ccccc2c1Cl`, the IC50 with L6 was more than 264000 nM; in series [8], 978 nM; in the series with Trypanosoma cruzi [2], 187 nM; with Leishmania donovani it was 11500 nM; in [9], 440 nM; in [10], 480 nM. Moreover, the IC50 in [11] is 160 nM. In addition, the selectivity ratio was more than 270 in series [1], more than 1410 in [3] and more than 23 in series [4]. Besides, the “Ratio IC50” value in series [5] is 3; with Trypanosoma cruzi [7], 12.09.

`O=C(NCCCCn1cnc([N+](=O)[O-])n1)c1nc2ccccc2s1`: the concentration for half-maximal inhibition (IC50) turned out to be 154000 nM with L6; 1730 nM in [8]; 422 nM in the series on Trypanosoma cruzi [2]; 27700 nM in the series on Leishmania donovani; 1360 nM in series [9]; 1390 nM in series [10]. Moreover, the IC50 in [11] was determined as 360 nM. For the same molecule, the results for the selectivity ratio in series [1], in series [3] and in [4] were 89, 364 and 6, respectively. In addition, the “Ratio IC50” value in series [5] worked out at 3.9; in the series with Trypanosoma cruzi [7] it was 5.36.

Values taken from ChEMBL document CHEMBL3351635, “Novel nitro(triazole/imidazole)-based heteroarylamides/sulfonamides as potential antitrypanosomal agents” (Eur J Med Chem, 2014).
